From patent US10059655B2, “Lipids and lipid compositions for the delivery of active agents” (priority 2013, dated 2018)

Tests used:
[1] = system: RSV F protein; assay: RSV immunogenicity: F-specific IgG titers after IM vaccination with liposome-formulated self-replicating RNA; format: in vivo; conditions: IM days 0 and 21, BALB/c mice, two weeks after two immunizations
[2] = Measurement of mRNA encapsulation in lipid nanoparticles (Quant-iT Ribogreen); format: physicochemical; conditions: Leptin mRNA in LNP
Method: All equipment and disposable supplies are certified free of RNase activity by the manufacturer or rendered RNase free by use of the RNaseZap reagent (LifeTechnologies). mRNA is encapsulated at a cationic lipid amine to mRNA phosphate (N:P) molar ratio of 4:1. Lipids (cationic lipid, DSPC, cholesterol and lipidated PEG or stealth lipid) are dissolved in ethanol. The molar ratios are 40:10:38:2, respectively. The mixture is sonicated briefly, then gently agitated for 5 minutes and then maintained at 37° C. until use. mRNA is exchanged into citrate buffer pH 5.8-6.0 by use of Amicon Ultra-15 centrifugal concentrators, and the final concentration is adjusted to 0.5 mg/ml and held at 37° C. until use. An equal volume of lipids in ethanol, mRNA in citrate buffer, and citrate buffer alone are drawn into disposable syringes.
Tubing leading from syringes containing lipids and mRNA are attached to the T junction, and tubing leading from the syringe containing citrate buffer alone is paired with the tubing exiting the T-junction over a collection vessel containing a stir bar on an active stir plate. Syringes are placed in a syringe pump set to expel contents at a flow rate of 1 ml per minute. The pump is activated, and the collected mRNA in lipid nanoparticles is transferred to SnakeSkin dialysis tubing (10,000 MWCO, Thermo Scientific). Material is dialyzed against RNAse- and pyrogen-free 1× phosphate buffered saline overnight at 4° C.
Percent encapsulation of mRNA in lipid nanoparticles is determined using the Quant-iT Ribogreen RNA Assay kit (Life Technologies). The LNP-mRNA suspension is assayed in buffer (mRNA outside the particle), and buffer plus Triton X-100 detergent (total mRNA). The difference calculated is the mRNA inside the particle. Prepare a 1000 ng/mL stock from the RNA provided in the kit and use this to generate a standard curve (0 ng/ml, 15.63-1000 ng/ml) in TE and TE+0.75% Triton X-100. Prepare LNP-mRNA samples in TE buffer and TE buffer+0.75% Triton X-100 with appropriate dilution so that reading is in the range of standard curve (400-2,000 fold). In a 384-well plate (Costar non-treated #3573) add 0.04 ml of standard (in duplicate) or sample (in triplicate) per well. Dilute Ribogreen reagent 240-fold in TE buffer and add 0.06 ml per well. Mix contents of wells and measure fluorescence (excitation=480 nm, emission=520 nm). Subtract background values (no RNA) from standard and test sample values and determine the concentrations of RNA in the samples using the standard curves. Determine the percent encapsulation of the sample by dividing the difference in concentrations between sample+triton and sample in buffer alone by the sample+triton concentration.

[3] = Polydispersity index (PDI) by dynamic light scattering; format: physicochemical; conditions: RSV-F replicon RNA LNP, DLS; for PDI 1st IM: 1st immunization; for PDI 2nd IM: 2nd immunization
Method: Unless indicated otherwise, all PDIs referred to herein are the PDI of the fully formed nanoparticle, as measured by dynamic light scattering on a Malvern Zetasizer. The nanoparticle sample was diluted in phosphate buffered saline (PBS) so that the count rate was approximately 200-400 kcts. The data is presented in Table 3 as a weighted average of the intensity measure.
(§1) % entrapment (% E), Concentration of RNA (Conc), particle size measured by DLS, and polydispersity reported by DLS of LNPs prepared with different cationic lipids

[4] = Particle size of the lipid nanoparticle (Z-average, dynamic light scattering, Malvern Zetasizer); format: physicochemical; conditions: RSV-F replicon RNA LNP, DLS; for Size 1st IM: 1st immunization; for Size 2nd IM: 2nd immunization
From the text: The lipid nanoparticles have a size of about 1 to about 2,500 nm, about 10 to about 1,500 nm, about 20 to about 1,000 nm, in a sub-embodiment about 50 to about 600 nm, in a sub-embodiment about 50 to about 400 nm, in a sub-embodiment about 50 to about 250 nm, and in a sub-embodiment about 50 to about 150 nm. Unless indicated otherwise, all sizes referred to herein are the average sizes (diameters) of the fully formed nanoparticle, as measured by dynamic light scattering on a Malvern Zetasizer. The nanoparticle sample is diluted in phosphate buffered saline (PBS) so that the count rate is approximately 200-400 kcts. The data is presented as a weighted average of the intensity measure.
Unless indicated otherwise, all particle size measurements referred to in Table 3 are the Z-average particle size of the fully formed nanoparticle, as measured by dynamic light scattering on a Malvern Zetasizer. The nanoparticle sample was diluted in phosphate buffered saline (PBS) so that the count rate is approximately 200-400 kcts.
as §1

[5] = Percentage of encapsulated RNA and RNA concentration of replicon liposomes (Quant-iT RiboGreen); format: physicochemical; conditions: for %E (% entrapment) 1st IM / Conc (Concentration of RNA) 1st IM: RSV-F replicon RNA LNP prepared for 1st immunization; for %E (% entrapment) 2nd IM / Conc (Concentration of RNA) 2nd IM: RSV-F replicon RNA LNP prepared for 2nd immunization
Method: RNA was encapsulated in liposomes made essentially by the method of Geall et al. (2012) PNAS vol. 109 (36): 14604-14609, Jeffs et al. (2005) Pharmaceutical Research 22 (3):362-372, and Maurer et al. (2001) Biophysical Journal, 80: 2310-2326 The liposomes were made of 10% DSPC (zwitterionic), 40% cationic lipid, 48% cholesterol and 2% PEG-conjugated DMG (2 kDa PEG). These proportions refer to the % moles in the total liposome.
Briefly, lipids were dissolved in ethanol (2 ml), a RNA replicon was dissolved in buffer (2 ml, 100 mM sodium citrate, pH 6) and these were mixed with 2 ml of buffer followed by 1 hour of equilibration. The mixture was then dialized overnight against 1×PBS. The resulting product contained liposomes, with ˜70-95% encapsulation efficiency. For in vitro and in vivo experiments formulations were diluted to the required RNA concentration with 1×PBS.
The percentage of encapsulated RNA and RNA concentration were determined by Quant-iT RiboGreen RNA reagent kit (Invitrogen), following manufacturer's instructions. The ribosomal RNA standard provided in the kit was used to generate a standard curve. Liposomes were diluted 10× or 100× in 1×TE buffer (from kit) before addition of the dye. Separately, liposomes were diluted 10× or 100× in 1×TE buffer containing 0.5% Triton X before addition of the dye (to disrupt the liposomes and thus to assay total RNA). Thereafter an equal amount of dye was added to each solution and then ˜180 μL of each solution after dye addition was loaded in duplicate into a 96 well tissue culture plate. The fluorescence (Ex 485 nm, Em 528 nm) was read on a microplate reader. All liposome formulations were dosed in vivo based on the encapsulated amount of RNA.
as §1

| Compound | Immunogenicity (2wp2; log10 IgG titers) ([1]; 0.1 ng replicon RNA) | Immunogenicity (2wp2; log10 IgG titers) ([1]; 1 ng replicon RNA) | % encapsulation mRNA Leptin [2] | PDI 1st IM [3] | PDI 2nd IM [3] | Size 1st IM [4] | Size 2nd IM [4] | %E (% entrapment) 1st IM [5] | Conc (Concentration of RNA) 1st IM [5] | %E (% entrapment) 2nd IM [5] | Conc (Concentration of RNA) 2nd IM [5] |
| --- | --- | --- | --- | --- | --- | --- | --- | --- | --- | --- | --- |
| CCCCC/C=C\C/C=C\CCCCCCCC(=O)OCC(COC(=O)CCC(OCCCCCCCC)OCCCCCCCC)COC(=O)OC1CCN(C)CC1 (stereo not shown) [Example 48, (9Z,12Z)-3-((4,4-bis(octyloxy)butanoyl)oxy)-2-(((((1-methylpiperidin-4-yl)oxy)carbonyl)oxy)methyl)propyl octadeca-9,12-dienoate] | 4.58 log10 IgG titers | 5.02 log10 IgG titers | 92.8% | 0.091 | 0.075 | 137.9 nm | 134.2 nm | 86.169% | 9841 ng/mL | 85.6% | 9665 ng/mL |
| CCCCC/C=C\C/C=C\CCCCCCCC(=O)OCC(COC(=O)CCC(OCCCCCCCC)OCCCCCCCC)COC(=O)C1(C)CCN(C)CC1 (stereo not shown) [Example 40, 3-((4,4-bis(octyloxy)butanoyl)oxy)-2-(((9Z,12Z)-octadeca-9,12-dienoyloxy)methyl)propyl 1,4-dimethylpiperidine-4-carboxylate] | 4.31 log10 IgG titers | 4.74 log10 IgG titers | 97.2% | 0.122 | 0.118 | 141 nm | 137.3 nm | 71.1% | 9461 ng/mL | 78.05% | 9650 ng/mL |
| CCCCC/C=C\C/C=C\CCCCCCCC(=O)OCC(COC(=O)CCC(OCCCCCCCC)OCCCCCCCC)COC(=O)CCN(C)C (stereo not shown) [Example 32, (9Z,12Z)-3-((4,4-bis(octyloxy)butanoyl)oxy)-2-(((3-(dimethylamino)propanoyl)oxy)methyl)propyl octadeca-9,12-dienoate] | 4.77 log10 IgG titers | 4.92 log10 IgG titers | 97.1% | 0.147 | 0.088 | 136.2 nm | 135 nm | 92.6% | 8810 ng/mL | 94.72% | 9653 ng/mL |
| CCCCC/C=C\C/C=C\CCCCCCCC(=O)OCC(COC(=O)CCC(OCCCCCCCC)OCCCCCCCC)COC(=O)C1CCN(CC2CC2)CC1 (stereo not shown) [Example 34, 3-((4,4-bis(octyloxy)butanoyl)oxy)-2-(((9Z,12Z)-octadeca-9,12-dienoyloxy)methyl)propyl 1-(cyclopropylmethyl)piperidine-4-carboxylate] | 3.73 log10 IgG titers | 4.36 log10 IgG titers | 97.1% | 0.116 | 0.11 | 136.2 nm | 135.4 nm | 75.5% | 9240 ng/mL | 79.19% | 11495 ng/mL |
| CCCCC/C=C\C/C=C\CCCCCCCC(=O)OCC(COC(=O)CCC(OCCCCCCCC)OCCCCCCCC)COC(=O)C1CCN(C)C1 (stereo not shown) [Example 35, 3-((4,4-bis(octyloxy)butanoyl)oxy)-2-(((9Z,12Z)-octadeca-9,12-dienoyloxy)methyl)propyl 1-methylpyrrolidine-3-carboxylate] | 4.53 log10 IgG titers | 4.86 log10 IgG titers | 97.3% | 0.119 | 0.108 | 135.2 nm | 137.5 nm | 93.46% | 10059 ng/mL | 93.9% | 9937 ng/mL |
